Like-named read-outs stand apart in the source and are kept apart here.
Columns and labels:
[1] = Biodistribution in AR42J tumor-bearing CB17-SCID mice; assay type: in vivo; conditions: mouse; for tissue to tissue ratio at 24 h: both sexes, CB17-SCID, total radioactivity; for tissue to tissue ratio at 24 h / tissue uptake at 24 h: 24 h p.i.; for tissue uptake at 1 h: 1 h p.i.
Method: (§1) All animal experiments were conducted in accordance with general animal welfare regulations in Germany (German animal protection act, in the edition of the announcement, dated 18 May 2006, as amended by Article 280 of 19 June 2020, approval no. ROB-55.2-1-2532.Vet_02-18-109 by the General Administration of Upper Bavaria) and the institutional guidelines for the care and use of animals. CB17-SCID mice of both genders and aged 2–12 months (Charles River Laboratories International Inc., Sulzfeld, Germany) were allowed to acclimate at the in-house animal facility for at least one week before inoculation was performed. Tumor xenografts were established as previously reported. Exclusion criteria for animals from an experiment were either weight loss higher than 20%, a tumor size above 1500 mm^3, an ulceration of the tumor, respiratory distress or a change of behavior. None of these criteria applied to any animal from the experiment. Neither randomization nor blinding was applied in the allocation of the experiments. Health status is SPF according to FELASA recommendation.
(§2) Biodistribution studies (n = 4) and µSPECT/CT as well as µPET/CT imaging (using a MILabs VECTor^4 small-animal SPECT/PET/OI/CT device, MILabs, Utrecht, The Netherlands) at 1 and 24 h p.i. were carried out as previously published. For all ^177Lu-labeled compounds, approximately 2–3 MBq (100 pmol)—and for the ^18F-labeled analog, approximately 7 MBq (100 pmol)—were administered. For all competition studies, 2.90 mg/kg (40 nmol) of [^natLu]Lu-DOTA-MGS5 (10^−3 M in phosphate-buffered saline) were co-administered.

[2] = tested on: AR42J tumor-bearing CB17-SCID mice; experiment: as above; assay type: in vivo; conditions: 24 h p.i.
Method: as §1, §2

[3] = adrenal, 100 pmol, 100 pmol, n = 4, read-out: Adrenal activity
[4] = blood, 100 pmol, 100 pmol, n = 4, read-out: Blood activity
[5] = bone, 100 pmol, 100 pmol, n = 4, read-out: Bone activity
[6] = heart, 100 pmol, 100 pmol, n = 4, read-out: Heart activity
[7] = intestine, 100 pmol, 100 pmol, n = 4, read-out: Intestine activity
[8] = liver, 100 pmol, 100 pmol, n = 4, read-out: Liver activity
[9] = lung, 100 pmol, 100 pmol, n = 4, read-out: Lung activity
[10] = muscle, 100 pmol, 100 pmol, n = 4, read-out: Muscle activity
[11] = 100 pmol co-injected with DOTA-MGS5 (40 nmol), n = 2

CCCC[C@H](NC(=O)[C@H](Cc1c[nH]c2ccccc12)NC(=O)CNC(=O)[C@H](Cc1ccc(O)cc1)NC(=O)[C@H](C)NC(=O)CC[C@@H](NC(=O)CC[C@@H](NC(=O)CC[C@@H](NC(=O)CC[C@@H](NC(=O)CC[C@@H](NC(=O)CC[C@@H](NC(=O)CC[C@@H](NC(=O)CC[C@@H](NC(=O)[C@@H](CNC(=O)c1ccc([Si](F)(C(C)(C)C)C(C)(C)C)cc1)NC(=O)CN1CCN(CC(=O)O)CCN(CC(=O)O)CCN(CC(=O)O)CC1)C(=O)O)C(=O)O)C(=O)O)C(=O)O)C(=O)O)C(=O)O)C(=O)O)C(=O)O)C(=O)N[C@@H](CC(=O)O)C(=O)N[C@@H](Cc1ccccc1)C(N)=O [[^19F]F-[^177Lu]Lu-DOTA-rhCCK-18, metal not drawn]
tissue to tissue ratio at 24 h ([1]; tumor / adrenal, 100 pmol, n = 4, read-out: Tumor-to-background ratio, Adrenal): 73.3 ± 13.4 | tissue to tissue ratio at 24 h ([1]; tumor / blood, 100 pmol, n = 4, read-out: Tumor-to-background ratio, Blood): 1630 ± 823 | tissue to tissue ratio at 24 h ([1]; tumor / bone, 100 pmol, n = 4, read-out: Tumor-to-background ratio, Bone): 151 ± 48 | tissue to tissue ratio at 24 h ([1]; tumor / heart, 100 pmol, n = 4, read-out: Tumor-to-background ratio, Heart): 312 ± 58 | tissue to tissue ratio at 24 h ([1]; tumor / intestine, 100 pmol, n = 4, read-out: Tumor-to-background ratio, Intestine): 124 ± 30 | tissue to tissue ratio at 24 h ([1]; tumor / kidney, 100 pmol, n = 4, read-out: Tumor-to-background ratio, Kidney): 0.19 ± 0.01 | tissue to tissue ratio at 24 h ([1]; tumor / liver, 100 pmol, n = 4, read-out: Tumor-to-background ratio, Liver): 48.1 ± 6.7 | tissue to tissue ratio at 24 h ([1]; tumor / lung, 100 pmol, n = 4, read-out: Tumor-to-background ratio, Lung): 236 ± 118 | tissue to tissue ratio at 24 h ([1]; tumor / muscle, 100 pmol, n = 4, read-out: Tumor-to-background ratio, Muscle): 650 ± 542 | tissue to tissue ratio at 24 h ([1]; tumor / pancreas, 100 pmol, n = 4, read-out: Tumor-to-background ratio, Pancreas): 78.8 ± 17.5 | tissue to tissue ratio at 24 h ([1]; tumor / spleen, 100 pmol, n = 4, read-out: Tumor-to-background ratio, Spleen): 115 ± 15 | tissue to tissue ratio at 24 h ([1]; tumor / stomach, 100 pmol, n = 4, read-out: Tumor-to-background ratio, Stomach): 6.58 ± 2.77 | tissue uptake at 1 h [1, 3]: 0.52 ± 0.07 %ID/g | tissue uptake at 24 h [1, 3]: 0.37 ± 0.12 %ID/g | tissue uptake at 24 h ([1]; adrenal, 100 pmol co-injected with DOTA-MGS5 (40 nmol), n = 2, read-out: Adrenal activity, competition studies): 5.02 ± 4.64 %ID/g | tissue uptake at 1 h [1, 4]: 2.56 ± 0.6 %ID/g | tissue uptake at 24 h [1, 4]: 0.02 ± 0.01 %ID/g | tissue uptake at 24 h ([1]; blood, 100 pmol co-injected with DOTA-MGS5 (40 nmol), n = 2, read-out: Blood activity, competition studies): 0.02 %ID/g | tissue uptake at 1 h ([1]; blood, heart and lung, 100 pmol, span over the three organs, read-out: Blood, heart and lung levels): 0.9 to 2.6 %ID/g | tissue uptake at 24 h ([1]; blood, heart and lung, 100 pmol, the three organs, read-out: Blood, heart and lung levels): < 0.2 %ID/g | tissue uptake at 1 h [1, 5]: 0.48 ± 0.02 %ID/g | tissue uptake at 24 h [1, 5]: 0.18 ± 0.03 %ID/g | tissue uptake at 1 h [1, 6]: 0.94 ± 0.02 %ID/g | tissue uptake at 24 h [1, 6]: 0.08 ± 0.02 %ID/g | tissue uptake at 24 h ([1]; heart, 100 pmol co-injected with DOTA-MGS5 (40 nmol), n = 2, read-out: Heart activity, competition studies): 0.08 ± 0.01 %ID/g | tissue uptake at 1 h [1, 7]: 0.61 ± 0.11 %ID/g | tissue uptake at 24 h [1, 7]: 0.21 ± 0.02 %ID/g | tissue uptake at 24 h ([1]; intestine, 100 pmol co-injected with DOTA-MGS5 (40 nmol), n = 2, read-out: Intestine activity, competition studies): 0.17 ± 0.06 %ID/g | tissue uptake at 1 h ([1]; kidney, 100 pmol, 100 pmol, n = 4, read-out: Kidney activity): 97.2 ± 14 %ID/g | tissue uptake at 24 h ([1]; kidney, 100 pmol co-injected with DOTA-MGS5 (40 nmol), n = 2, read-out: Kidney activity, competition studies): 193 ± 15 %ID/g | tissue uptake at 1 h [1, 8]: 1.15 ± 0.18 %ID/g | tissue uptake at 24 h [1, 8]: 0.53 ± 0.07 %ID/g | tissue uptake at 24 h ([1]; liver, 100 pmol co-injected with DOTA-MGS5 (40 nmol), n = 2, read-out: Liver activity, competition studies): 1.51 ± 0.02 %ID/g | tissue uptake at 1 h [1, 9]: 2.05 ± 0.2 %ID/g | tissue uptake at 24 h [1, 9]: 0.18 ± 0.15 %ID/g | tissue uptake at 24 h ([1]; lung, 100 pmol co-injected with DOTA-MGS5 (40 nmol), n = 2, read-out: Lung activity, competition studies): 0.76 ± 0.17 %ID/g | tissue uptake at 1 h [1, 10]: 0.38 ± 0.03 %ID/g | tissue uptake at 24 h [1, 10]: 0.08 ± 0.06 %ID/g | tissue uptake at 24 h ([1]; muscle, 100 pmol co-injected with DOTA-MGS5 (40 nmol), n = 2, read-out: Muscle activity, competition studies): 0.07 ± 0.04 %ID/g | tissue uptake at 1 h ([1]; pancreas, 100 pmol, 100 pmol, n = 4, read-out: Pancreas activity): 1.22 ± 0.21 %ID/g | tissue uptake at 1 h ([1]; spleen, 100 pmol, 100 pmol, n = 4, read-out: Spleen activity): 0.6 ± 0.08 %ID/g | tissue uptake at 24 h ([1]; spleen, 100 pmol co-injected with DOTA-MGS5 (40 nmol), n = 2, read-out: Spleen activity, competition studies): 0.95 ± 0.14 %ID/g | tissue uptake at 1 h ([1]; stomach, 100 pmol, 100 pmol, n = 4, read-out: Stomach activity): 4.25 ± 0.45 %ID/g | tissue uptake at 1 h ([1]; tumor, 100 pmol, 100 pmol, n = 4, AR42J tumor, read-out: Tumor activity): 24.1 ± 4.2 %ID/g | tissue uptake at 24 h ([1]; tumor, 100 pmol co-injected with DOTA-MGS5 (40 nmol), n = 2, read-out: Tumor activity, competition studies): 1.75 ± 0.26 %ID/g

CCCC[C@H](NC(=O)[C@H](Cc1c[nH]c2ccccc12)NC(=O)CNC(=O)[C@H](Cc1ccc(O)cc1)NC(=O)[C@H](C)NC(=O)CC[C@@H](NC(=O)CC[C@@H](NC(=O)CC[C@@H](NC(=O)CC[C@@H](NC(=O)CC[C@@H](NC(=O)CC[C@@H](NC(=O)CC[C@@H](NC(=O)CC[C@@H](NC(=O)[C@@H](CNC(=O)c1ccc([Si](F)(C(C)(C)C)C(C)(C)C)cc1)NC(=O)CN1CCN(CC(=O)O)CCN(CC(=O)O)CCN(CC(=O)O)CC1)C(=O)O)C(=O)O)C(=O)O)C(=O)O)C(=O)O)C(=O)O)C(=O)O)C(=O)O)C(=O)N[C@@H](CC(=O)O)C(=O)N[C@@H](Cc1ccccc1)C(N)=O [[^19F]F-[^177Lu]Lu-DOTA-rhCCK-18] [metal not drawn]
fold enhanced kidney values compared to [177Lu]Lu-DOTA-PP-F11N [2]: 40 fold | fold higher tumor uptake compared to [177Lu]Lu-DOTA-PP-F11N [2]: 13 fold | Pancreas activity, competition studies [2, 11]: 0.22 ± 0.02 %ID/g | Stomach activity, competition studies [2, 11]: < 2 %ID/g | Tumor activity, competition studies [2, 11]: < 2 %ID/g | Kidney activity ([2]; 100 pmol, n = 4): 134 ± 18 %ID/g | Pancreas activity ([2]; 100 pmol, n = 4): 0.34 ± 0.09 %ID/g | Stomach activity ([2]; 100 pmol, n = 4): 4.28 ± 1.05 %ID/g | Tumor activity ([2]; 100 pmol, n = 4, AR42J tumor): 25.4 ± 4.7 %ID/g | fold higher tumor uptake compared to (R)-DOTAGA derivative ([2]; b47: versus [177Lu]Lu-(R)-DOTAGA-rhCCK-16): 1.5 fold

— PMC10054553, “Development of the First ^18F-Labeled Radiohybrid-Based Minigastrin Derivative with High Target Affinity and Tumor Accumulation by Substitution of the Chelating Moiety” (Pharmaceutics, 2023)
